Holding throughout (format): ADME, organism-based, Macaca fascicularis
Series [1] is described as follows: Ratio of drug uptake in caudate to cerebellum in anesthetized cynomolgus monkey after 195 mins postinjection. To be noted: in vivo, 3.25 h.
Series [2] can be described thus: Drug uptake in anesthetized cynomolgus monkey brain cerebellum after 145 mins postinjection. To be noted: in vivo.
Series [3] can be described thus: Drug uptake in anesthetized cynomolgus monkey brain cerebellum after 185 mins postinjection. To be noted: in vivo.
The nature of series [4]: Ratio of drug uptake in medulla to cerebellum in anesthetized cynomolgus monkey after 6.5 mins postinjection. As to conditions: in vivo.
A short description of series [5]: Drug uptake in anesthetized cynomolgus monkey brain frontal lobe after 135 mins postinjection. As to conditions: in vivo, 2.25 h.
Series [6] is described as follows: Drug uptake in anesthetized cynomolgus monkey brain frontal lobe after 205 mins postinjection. To be noted: in vivo.
Series [7] in a line: Drug uptake in anesthetized cynomolgus monkey brain cerebellum after 55 mins postinjection. As to conditions: in vivo.

`O=C(OCC[18F])C1C2CCC(CC1c1cccc(/C=C\Br)c1)N2` (centres undefined): the Ratio in series [1] worked out at 1.7; in series [4], 1.3. For the same compound, the Drug uptake in series [2] was determined as 2.35; in series [3] it was 1.86; in series [5], 2.56; in series [6] it was 1.98; in series [7] it was 3.61.

With `O=C(OCCC[18F])C1C2CCC(CC1c1cccc(/C=C\I)c1)N2` (centres undefined), the Ratio in series [1] came out at 1.3; in series [4], 1. For the same compound, the Drug uptake is 2.4 in series [2]; 2.18 in series [3]; 2.35 in series [5]; 1.89 in series [6]; 4.31 in series [7].
